Test results reported in article PMC7594851, “Enhanced oral bioavailability of an etoposide multiple nanoemulsion incorporating a deoxycholic acid derivative–lipid complex” (Drug Delivery, 2020).
≈ marks a conversion by molar mass, not a printed value. Where “and” joins values, the source holds several entries; their conditions need not be identical. Identical values can stand only once. Counter-ions that a name gives are not always drawn.

Legend:
[1] = Droplet size, polydispersity index and zeta potential by dynamic laser light scattering; assay type: physicochemical; conditions: mean ± SD, n=6
Experimental: The average droplet size, polydispersity index (PDI), and zeta potential of ELNE were determined using a dynamic laser light scattering analyzer (Malvern Zetasizer Nano ZS90; Malvern Instruments, Malvern, UK). Morphological evaluation of the selected ELNE was performed by transmission electron microscopy (JEM-200; JEOL, Tokyo, Japan).

[2] = Aqueous solubility of ETP and ETP/LMC complexes; assay type: physicochemical; conditions: water; mean ± SD, n=6
Description: Supplement IDRD_A_1837293_SM2931.docx, table 3: Table S3. Aqueous solubilities of a physical complex of ETP and LMC and effective permeabilities of ETP and ETP/LMC or ETP and ETP/LMC-loaded nanoemulsion. | column: Aqueous solubility (μg/mL)

[3] = Parallel artificial membrane permeability assay (effective permeability, Pe); assay type: in vitro ADME; conditions: PAMPA; Table S3: after dissolution of ETP or ETP/LMCs in water, or incorporation into the nanoemulsion; mean ± SD, n=6
Experimental: A parallel artificial membrane permeability assay was performed using pre-coated 96-well plates designed for this assay (Corning, Corning, NY) according to the manufacturer’s instructions. Briefly, 300 µL PBS (pH 6.8) was added to the receiver plate, and 200 µL of each formulation diluted in PBS (pH 6.8) containing 100 µg/mL ETP was added to each well of the filter plate. The plates were then assembled, and the system was incubated at room temperature for five hours without shaking. After five hours, the plates were disassembled, and samples were withdrawn from both the donor and acceptor plates. The concentration of ETP that permeated through the artificial membrane was measured by HPLC at 254 nm. […] The effective permeability (Pe) of each sample was calculated according to the formula: (1) Pe=−ln[1−CA(t)/Cequilibrium]/[A ×(1/VD+1/VA)×t] where Pe is the permeability (cm/s), A is the effective permeation area (0.288 cm^2), VD is the volume of the donor well (0.2 mL), VA is the volume of the acceptor well (0.3 mL), t is the total incubation time in s, CA(t) is the concentration of the drug in the acceptor well at time t, and Cequilibrium represents [CD(t) × VD + CA(t) × VA]/(VD + VA), where CD(t) denotes the concentration of the drug in the donor well at time t.

In the case of `COC(=O)C(CCCCN)NC(=O)CCC(C)C1CCC2C3CCC4CC(O)CCC4(C)C3CC(O)C12C` (stereo not drawn) [DCK, N^α-deoxycholyl-l-lysyl-methylester], the Particle size [1] is reported as 263 ± 42.4 nm, the Polydispersity index [1] is reported as 0.717 ± 0.107 and the Zeta potential [1] is reported as 29.4 ± 0.57 mV and 29.4 ± 0.576 mV.
With `COc1cc([C@@H]2c3cc4c(cc3[C@@H](O[C@@H]3O[C@@H]5CO[C@@H](C)O[C@H]5[C@H](O)[C@H]3O)[C@H]3COC(=O)[C@H]23)OCO4)cc(OC)c1O` [ETP, etoposide] the solubility [2] was 230 ± 29.4 µg/mL (≈ 391 µM) and the Papp at 5 h, 100 µg/mL [3] was 0.251 ± 0.063 ×10⁻⁶ cm/s.
`CCCCCCCCCC(=O)OC[C@H](COP(=O)(O)O)OC(=O)CCCCCCCCC` [PA, 1,2-didecanoyl-sn-glycero-3-phosphate (sodium salt)] showed a Particle size [1] of 276 ± 3.67 nm and a Polydispersity index [1] of 0.330 ± 0.008.
